PubChem BioAssay (NCI)
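Step 1: Grow cells in 96-well plates. Step 2: Expose to compound for 48 hours at 5 concentrations. Step 3: Interpolate endpoints linearly; if unreached, use highest concentration. GI50 marks 50% less growth. Definition used: TGI = concentration required for complete inhibition of growth.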

Assays:
Test in all cases: NCI anticancer screen, dose series, 48 h
[1] = test system: 786-0 renal
[2] = test system: HOP-62 NSCLC
[3] = test system: NCI/ADR-RES ovarian
[4] = test system: SK-MEL-5 melanoma
[5] = test system: SF-268 CNS
[6] = test system: EKVX NSCLC
[7] = test system: CCRF-CEM leukemia
[8] = test system: BT-549 breast
[9] = test system: M14 melanoma
[10] = test system: UACC-62 melanoma
[11] = test system: SW-620 colon
[12] = test system: SR leukemia
[13] = test system: A498 renal
[14] = test system: NCI-H226 lung
[15] = test system: MOLT-4 leukemia
[16] = test system: SK-MEL-2 melanoma
[17] = test system: SNB-75 CNS
[18] = test system: OVCAR-5 ovarian
[19] = test system: HCC-2998 colon
[20] = test system: PC-3 prostate
[21] = test system: RPMI-8226 leukemia
[22] = test system: OVCAR-4 ovarian
[23] = test system: SF-539 CNS
[24] = test system: A549 NSCLC
[25] = test system: SK-MEL-28 melanoma
[26] = test system: HS 578T breast
[27] = test system: IGROV1 ovarian
[28] = test system: LOX IMVI melanoma
[29] = test system: UACC-257 melanoma
[30] = test system: UO-31 renal
[31] = test system: MDA-MB-231 breast
[32] = test system: SN12C renal
[33] = test system: U251 CNS
[34] = test system: HCT-15 colon
[35] = test system: TK-10 renal
[36] = test system: OVCAR-3 ovarian
[37] = test system: DU-145 prostate
[38] = test system: NCI-H522 lung
[39] = test system: HT29 colon
[40] = test system: SF-295 CNS
[41] = test system: SK-OV-3 ovarian
[42] = test system: NCI-H460 lung
[43] = test system: SNB-19 CNS
[44] = test system: KM12 colon
[45] = test system: MDA-MB-435
[46] = test system: MDA-N
[47] = test system: HOP-92 NSCLC
[48] = test system: HCT-116 colon
[49] = test system: ACHN renal
[50] = test system: MCF7 breast
[51] = test system: OVCAR-8 ovarian
[52] = test system: K-562 leukemia
[53] = test system: T-47D breast
[54] = test system: CAKI-1 renal
[55] = test system: MALME-3M melanoma
[56] = test system: RXF 393 renal
[57] = test system: HL-60(TB) leukemia
[58] = test system: COLO 205 colon
[59] = test system: NCI-H23 lung

COc1cc2c(cc1OCCCNC(=O)c1cc3ccccc3[nH]1)N=C[C@@H]1CCCN1C2=O
TGI [1]: 41400 nM
TGI [2]: 21600 nM
TGI [3]: 9990 nM
TGI [4]: 297 nM
TGI [5]: 237 nM
TGI [6]: 5680 nM
TGI [7]: > 100000 nM
TGI [8]: 559 nM
TGI [9]: 1150 nM
TGI [10]: 705 nM
TGI [11]: > 100000 nM
TGI [12]: > 100000 nM
TGI [13]: 257 nM
TGI [14]: 2960 nM
TGI [15]: > 100000 nM
TGI [16]: 418 nM
TGI [17]: 2010 nM
TGI [18]: > 33300 nM
TGI [19]: 10500 nM
TGI [20]: 5790 nM
TGI [21]: > 100000 nM
TGI [22]: 11700 nM
TGI [23]: 539 nM
TGI [24]: > 100000 nM
TGI [25]: 1650 nM
TGI [26]: 562 nM
TGI [27]: 740 nM
TGI [28]: > 100000 nM
TGI [29]: > 66400 nM
TGI [30]: > 100000 nM
TGI [31]: > 35200 nM
TGI [32]: 14900 nM
TGI [33]: > 33600 nM
TGI [34]: > 26900 nM
TGI [35]: > 47500 nM
TGI [36]: > 100000 nM
TGI [37]: > 34300 nM
TGI [38]: 46.2 nM
TGI [39]: > 34300 nM
TGI [40]: > 31900 nM
TGI [41]: > 60200 nM
TGI [42]: > 100000 nM
TGI [43]: > 38300 nM
TGI [44]: 1840 nM
TGI [45]: 716 nM
TGI [46]: 1870 nM
TGI [47]: > 100000 nM
TGI [48]: 14300 nM
TGI [49]: > 100000 nM
TGI [50]: > 48100 nM
TGI [51]: 3640 nM
TGI [52]: > 100000 nM

CC(C)c1ccc(C(=O)Nc2sc3c(c2C(N)=O)CCC(=O)C3)cc1
GI50 [1]: 2290 nM
TGI [1]: 10500 nM
GI50 [2]: 3040 nM
TGI [2]: 18100 nM
GI50 [3]: 975 nM
TGI [3]: 5570 nM
GI50 [4]: 1140 nM
TGI [4]: 2560 nM
GI50 [5]: 571 nM
TGI [5]: 3450 nM
GI50 [6]: 1780 nM
TGI [6]: 5340 nM
GI50 [7]: 215 nM
TGI [7]: 4270 nM
GI50 [8]: 352 nM
TGI [8]: 1940 nM
GI50 [53]: 312 nM
TGI [53]: 2100 nM
GI50 [9]: 522 nM
TGI [9]: 2440 nM
GI50 [10]: 460 nM
TGI [10]: 1910 nM
GI50 [11]: 256 nM
TGI [11]: 1600 nM
GI50 [12]: 413 nM
TGI [12]: 11000 nM
GI50 [13]: 2330 nM
TGI [13]: 8520 nM
GI50 [14]: 2420 nM
TGI [14]: 7230 nM
GI50 [15]: 461 nM
TGI [15]: 3170 nM
GI50 [16]: 2160 nM
TGI [16]: 5250 nM
GI50 [17]: 795 nM
TGI [17]: 2650 nM
GI50 [54]: 334 nM
TGI [54]: 1550 nM
GI50 [18]: 1160 nM
TGI [18]: 3080 nM
GI50 [19]: 1850 nM
TGI [19]: 4230 nM
GI50 [20]: 242 nM
TGI [20]: 1310 nM
GI50 [21]: 127 nM
TGI [21]: 691 nM
GI50 [22]: 329 nM
TGI [22]: 1200 nM
GI50 [23]: 359 nM
TGI [23]: 1490 nM
GI50 [24]: 1960 nM
TGI [24]: 13200 nM
GI50 [25]: 1180 nM
TGI [25]: 3010 nM
GI50 [26]: 534 nM
TGI [26]: 5270 nM
GI50 [27]: 491 nM
TGI [27]: 2140 nM
GI50 [28]: 373 nM
TGI [28]: 1710 nM
GI50 [29]: 2050 nM
TGI [29]: 5040 nM
GI50 [30]: 267 nM
TGI [30]: 1100 nM
GI50 [31]: 788 nM
TGI [31]: 2430 nM
GI50 [32]: 515 nM
TGI [32]: 2350 nM
GI50 [55]: 1650 nM
TGI [55]: 4790 nM
GI50 [33]: 399 nM
TGI [33]: 1900 nM
GI50 [34]: 387 nM
TGI [34]: 2120 nM
GI50 [35]: 1290 nM
TGI [35]: 3810 nM
GI50 [36]: 421 nM
TGI [36]: 1510 nM
GI50 [37]: 3160 nM
TGI [37]: 14300 nM
GI50 [38]: 316 nM
TGI [38]: 1560 nM
GI50 [39]: 484 nM
TGI [39]: 5340 nM
GI50 [56]: 354 nM
TGI [56]: 1490 nM
GI50 [40]: 1420 nM
TGI [40]: 3610 nM
GI50 [41]: 2620 nM
TGI [41]: 8020 nM
GI50 [57]: 615 nM
TGI [57]: 4820 nM
GI50 [42]: 849 nM
TGI [42]: 3730 nM
GI50 [43]: 472 nM
TGI [43]: 6020 nM
GI50 [44]: 450 nM
TGI [44]: 1850 nM
GI50 [58]: 564 nM
TGI [58]: 1900 nM
GI50 [45]: 1490 nM
TGI [45]: 3620 nM
GI50 [59]: 381 nM
TGI [59]: 2450 nM
GI50 [47]: 1290 nM
TGI [47]: 3670 nM
GI50 [48]: 311 nM
TGI [48]: 1430 nM
GI50 [49]: 343 nM
TGI [49]: 1110 nM
GI50 [50]: 466 nM
TGI [50]: 5160 nM
GI50 [51]: 710 nM
TGI [51]: 13300 nM
GI50 [52]: 207 nM
TGI [52]: 3830 nM

Cc1c2c(cc3c1C(=O)C(=O)C([C@@H](C)CO)=C3O)C(C)(C)CCC2
TGI [1]: > 100000 nM
TGI [2]: > 100000 nM
TGI [3]: > 100000 nM
TGI [4]: 86900 nM
TGI [5]: > 100000 nM
TGI [6]: > 100000 nM
TGI [7]: 40700 nM
TGI [8]: > 100000 nM
TGI [53]: > 100000 nM
TGI [9]: 67500 nM
TGI [10]: > 100000 nM
TGI [11]: > 100000 nM
TGI [12]: 56700 nM
TGI [13]: 98900 nM
TGI [14]: > 100000 nM
TGI [15]: 93200 nM
TGI [16]: 47200 nM
TGI [17]: 86500 nM
TGI [54]: > 100000 nM
TGI [18]: > 100000 nM
TGI [20]: 48200 nM
TGI [21]: > 100000 nM
TGI [22]: > 100000 nM
TGI [24]: > 100000 nM
TGI [25]: > 100000 nM
TGI [26]: > 100000 nM
TGI [27]: > 100000 nM
TGI [28]: > 100000 nM
TGI [29]: > 100000 nM
TGI [30]: 38600 nM
TGI [31]: > 100000 nM
TGI [32]: > 100000 nM
TGI [55]: 57100 nM
TGI [33]: 53800 nM
TGI [34]: > 100000 nM
TGI [35]: > 100000 nM
TGI [36]: > 100000 nM
TGI [37]: > 100000 nM
TGI [38]: 62800 nM
TGI [39]: 30600 nM
TGI [56]: 92300 nM
TGI [40]: > 100000 nM
TGI [41]: > 100000 nM
TGI [43]: 23300 nM
TGI [44]: 34200 nM
TGI [58]: > 100000 nM
TGI [45]: > 100000 nM
TGI [59]: 45200 nM
TGI [46]: > 100000 nM
TGI [47]: > 100000 nM
TGI [48]: 93100 nM
TGI [51]: > 100000 nM
TGI [52]: > 100000 nM
